Columns and labels:
[1] = test system: AMPA mediated transmission; assay: In vitro hippocampus slice population spike with Fluorowillardine alone or together with alkaloids; format: cell-based, rat; conditions: isolated alkaloids; mean of 3 slices; FIG. 7
Method: Four important alkaloids contained in Zembrin® namely, mesembrenone, mesembrenol, mesembrine and mesembranol, were individually isolated. Similar tests to those described in example A were carried out on each of these isolated alkaloids, in the presence of two concentrations in the nanomolar range and the results are illustrated in FIGS. 5 to 7. In FIG. 5, the statistical significance of p<0.01 is marked by stars. In FIG. 6, the statistical significance of p<0.01 is marked by stars. In FIG. 7, mean values of 3 slices are depicted for each recording condition. Statistical significance between Fluorowillardine alone and the presence of the alkaloids is documented by stars. (**=p<0.05; ***=p<0.01).

[2] = test system: pyramidal cell activity in hippocampus slices; assay: In vitro hippocampus slice population spike in presence of isolated alkaloids; format: cell-based, rat; conditions: for attenuation of population spike amplitude, single shock stimuli / attenuation of population spike amplitude, theta burst stimuli: two concentrations in the nanomolar range; for attenuation of population spike amplitude, single shock stimuli: FIG. 5; for attenuation of population spike amplitude, theta burst stimuli: FIG. 6
Description: Electric stimulation of Schaffer Collaterals leads to release of glutamate resulting in excitation of the postsynaptic pyramidal cells. The result of the electric stimulation can be recorded as so-called population spike (pop-spike). The amplitude of the resulting population spike represents the number of recruited pyramidal cells. The model of hippocampal pyramidal cell activity reflects the effects of physiological interventions by an increase or decrease of the amplitude of the population spike.
Hippocampus slices were obtained from 19 adult male Sprague-Dawlay rats (Charles River Wiga, Sulzbach, Germany). Rats were kept under a reversed day/night cycle for 2 weeks prior to the start of the experiments to allow recording of in vitro activity from slices during the active phase of their circadian rhythm (Dimpfel, W., Dalhoff, B., Hofmann, W., Schlüter, G. (1994) Electrically evoked potentials in the rat hippocampus slice in the presence of aminophylline alone and in combination with quinolones (European Neuropsychopharmacology, 4, 151-156).
Preparation of the slices was performed exactly as reported earlier (Dimpfel, W. and Hoffmann, J. A. (2011) Effects of rasagiline, its metabolite aminoindan and selegiline on glutamate receptor mediated signalling in the rat hippocampus slice in vitro (BMC Pharmacology, 11, 2)). Animals were exsanguinated under ether anaesthesia; the brain was removed in total and the hippocampal formation was isolated under microstereoscopic sight. The midsection of the hippocampus was fixed to the table of a vibrating microtome (Rhema Labortechnik, Hofheim, Germany) using a cyanoacrylate adhesive, submerged in chilled bicarbonate-buffered saline (artificial cerebrospinal fluid (ACSF): NaCl: 124 mM, KCl: 5 mM, CaCl2: 2 mM, MgSO4: 2 mM, NaHCO3: 26 mM, glucose: 10 mM, and cut into slices of 400μ thickness. All slices were pre-incubated for at least 1 h in Carbogen saturated ACSF (pH 7.4) in a pre-chamber before use (Dimpfel, W., Spüler, M., Dalhoff, A., Hoffmann, W., Schlüter, G. (1991) Hippocampal activity in the presence of quinolones and fenbufen in-vitro (Antimicrobial Agents and Chemotherapy, 35, 1142-1146).
During the experiment the slices were held and treated in a special superfusion chamber (List Electronics, Darmstadt, Germany) according to (Haas, H L., Schaerer, B., Vosmansky, M. (1979). A simple perfusion chamber for the study of nervous tissue slices in vitro (J Neurosci Methods, 1, 323-5), at 35° C. (Schiff, S J., Somjen, G G. (1985) The Effects of Temperature on Synaptic Transmission in Hippocampal Tissue Slices (Brain Research, 345, 279-284)). The preparation was superfused with ACSF at 180-230 ml/h. Electric stimulation (200 μA constant current pulses of 200 μs pulse width) of the Schaffer Collaterals within the […] area and recording of extracellular field potentials from the pyramidal cell layer of CA1 (Dimpfel, W., Spüler, M., Dalhoff, A., Hoffmann, W., Schlüter, G. (1991) Hippocampal activity in the presence of quinolones and fenbufen in-vitro (Antimicrobial Agents and Chemotherapy, 35, 1142-1146).
Measurements were performed at 10 min intervals to avoid potentiation mechanisms. Four stimulations—each 20 seconds apart—were averaged for each time point. After obtaining three stable responses to single stimuli (SS) long-term potentiation was induced by applying a theta burst type pattern (TBS). […]

| Compound | interaction with AMPA mediated transmission (population spike with Fluorowillardine alone or with alkaloid) [1] | attenuation of population spike amplitude, single shock stimuli [2] | attenuation of population spike amplitude, theta burst stimuli [2] | concentration exerting a similar extent of attenuation of population spike amplitude ([2]; FIGS. 5 and 6) [nM] |
| --- | --- | --- | --- | --- |
| COc1ccc(C23CCC(O)CC2N(C)CC3)cc1OC (stereo not shown) [mesembranol] | interact with AMPA mediated transmission | stronger attenuation | stronger attenuation | – |
| COc1ccc(C23C=CC(O)CC2N(C)CC3)cc1OC (stereo not shown) [mesembrenol] | interact with AMPA mediated transmission | stronger attenuation | stronger attenuation | – |
| COc1ccc([C@@]23CCC(=O)C[C@@H]2N(C)CC3)cc1OC [mesembrine, reference compound] | – | – | – | 8.65 |
